For assay [1], the system named is urease. The settings on record: Limburgerhof soil; for % N loss based on fertilized N quantity: 30% strength urea solution, 10 days' incubation, inhibitor 0.125% (w/w) based on urea, 20° C.; for % N loss relative to NBTPT without mixing partner / % N loss relative to NcHTPT without mixing partner / % N loss relative to NPenTPT without mixing partner / % N loss relative to NiBTPT without mixing partner / % N loss relative to NPTPT without mixing partner / % N loss relative to NNDBTPT without mixing partner / % N loss relative to NNDiTPT without mixing partner: 30% urea solution, 10 days.
Protocol: (§1) The efficacy of the (thio)phosphoric triamides, individually and in combination, was tested by a method based on that of Fenn & Kissel ((1973) Ammonia volatilization from surface applications of ammonium compounds on calcareous soils. Soil Sci. Soc. Am. J. 37, 855-859) for their effect in limiting ammonia volatilization from urea or urea-comprising fertilizers. Three different soils in which ammonia volatilization after urea fertilization is particularly pronounced were used. These soils are distinguished by relatively high pH values of >6.5 and/or low base buffering. […] 200 g of dry soil per incubation vessel were moistened with 5.4 ml of fully demineralized water, and 1.087 g of urea (corresponds to 500 mg of urea-N) were applied in the form of granules. If urea-comprising solutions were tested, the 200 g of soil were moistened with an aqueous urea-comprising solution comprising 1.630 g of urea (corresponds to 750 mg of urea-N), without or with urease inhibitor or combinations of these. The solution was applied dropwise over the entire soil surface, using a pipette. The amount of (thio)phosphoric triamides as individual substances or in combination in different proportions was always a uniform 0.125% (w/w) based on urea. The incubations were accomplished at 20° C. (18-22° C.) in a controlled-environment cabinet. The ammonia collected in the acid trap was determined quantitatively as ammonium using a continuous flow analyzer (from Bran+Luebbe), proceeding by methods with which the skilled worker is familiar.

Assay [2] has as its system urease. The settings on record: Table 9, granulated urea, soil in Hanover; for % N loss based on fertilized N quantity: 10 days' incubation, inhibitor 0.125% (w/w) based on urea, 20° C.; for % N loss relative to NBTPT without mixing partner / % N loss relative to NPTPT without mixing partner: 10 days, NBTPT/NPTPT series.
Protocol: as §1
In assay [3] the test system is urease. The settings on record: Table 10, granulated urea, soil in France; for % N loss based on fertilized N quantity: 10 days' incubation, inhibitor 0.125% (w/w) based on urea, 20° C.; for % N loss relative to NBTPT without mixing partner / % N loss relative to NPTPT without mixing partner: 10 days, NBTPT/NPTPT series.
Protocol: as §1
Assay [4] deals with urease. The settings on record: granulated urea, Limburgerhof soil; for % N loss based on fertilized N quantity: 10 days' incubation, inhibitor 0.125% (w/w) based on urea, 20° C.; for % N loss relative to NBTPT without mixing partner / % N loss relative to NcHTPT without mixing partner / % N loss relative to NPenTPT without mixing partner / % N loss relative to NiBTPT without mixing partner / % N loss relative to NPTPT without mixing partner: 10 days.
Protocol: as §1

Where [5] appears, read: Table 11, comparative experiment.
[6] abbreviates: Table 12, comparative experiment.
Where [7] appears, read: Table 12, NBTPT/NNDiBTPT series.

Like-named read-outs stand apart in the source and are kept apart here.

As for `CCCCNP(N)(N)=S` [NBTPT, N-n-butylthiophosphoric triamide], the “% N loss based on fertilized N quantity” value in the assay on urease [1] (Table 5) stood at 0.69%; in the assay with urease [1] (Table 6), 0.71%; in the assay on urease [1] (Table 7), 0.33%; in the assay with urease [1] (Table 8), 0.33%; in the assay with urease [1] (setting [5]), 1.90%; in the assay with urease [1] (setting [6]) it was 1.90%. Further, the “% N loss based on fertilized N quantity” value in the assay with urease [2] is 1.32%; with urease [3], 1.30%; with urease [4] (Table 1), 1.54%; in the assay with urease [4] (Table 2) it was 1.54%; in the assay with urease [4] (Table 3), 1.54%; with urease [4] (Table 4) it was 1.54%. Also, the “% N loss relative to NBTPT without mixing partner” value in the assay on urease [1] (Table 5, NBTPT/NcHTPT series) was 100%; in the assay with urease [1] (Table 6, NBTPT/NPenTPT series), 100%; in the assay with urease [1] (Table 7, NBTPT/NiBTPT series) it was 100%; in the assay with urease [1] (Table 8, NBTPT/NPTPT series) it was 100%; in the assay with urease [1] (Table 11, NBTPT/NNDBTPT series), 100%; in the assay on urease [1] (setting [7]), 100%. The “% N loss relative to NBTPT without mixing partner” value in the assay with urease [2] is on record as 100%; in the assay with urease [3], 100%; in the assay on urease [4] (Table 1, NBTPT/NcHTPT series) it was 100%; in the assay on urease [4] (Table 2, NBTPT/NPenTPT series), 100%; in the assay on urease [4] (Table 3, NBTPT/NiBTPT series), 100%; in the assay on urease [4] (Table 4, NBTPT/NPTPT series), 100%. Moreover, the “% N loss relative to NcHTPT without mixing partner” value was found to be 62% in the assay with urease [1] (Table 5, NBTPT/NcHTPT series) and 56% in the assay with urease [4] (Table 1, NBTPT/NcHTPT series). The “% N loss relative to NPenTPT without mixing partner” value in the assay with urease [1] (Table 6, NBTPT/NPenTPT series) is recorded as 63%; in the assay with urease [4] (Table 2, NBTPT/NPenTPT series), 63%. The “% N loss relative to NiBTPT without mixing partner” value in the assay on urease [1] (Table 7, NBTPT/NiBTPT series) turned out to be 61%; in the assay with urease [4] (Table 3, NBTPT/NiBTPT series) it was 92%. Also, the “% N loss relative to NPTPT without mixing partner” value stood at 79% in the assay on urease [1] (Table 8, NBTPT/NPTPT series); 63% in the assay with urease [2]; 83% in the assay with urease [3]; 96% in the assay with urease [4] (Table 4, NBTPT/NPTPT series). For the same molecule, the “% N loss relative to NNDBTPT without mixing partner” value in the assay on urease [1] (Table 11, NBTPT/NNDBTPT series) is 10%. Further, in the assay on urease [1] (setting [7]), the “% N loss relative to NNDiTPT without mixing partner” value is reported as 9%.

In the case of `CCCCN(CCCC)P(N)(N)=S` [NNDBTPT, N,N-di-n-butylthiophosphoric triamide], in the assay with urease [1] (setting [5]), the “% N loss based on fertilized N quantity” value amounted to 19.24%. In the assay on urease [1] (Table 11, NBTPT/NNDBTPT series), the “% N loss relative to NBTPT without mixing partner” value turned out to be 1013% and the “% N loss relative to NNDBTPT without mixing partner” value was 100%.

Regarding `CC(C)CN(CC(C)C)P(N)(N)=S` [NNDiBTPT, N,N-di-isobutylthiophosphoric triamide], in the assay with urease [1] (setting [6]), the “% N loss based on fertilized N quantity” value was found to be 21.83%. Also, in the assay with urease [1] (setting [7]), the “% N loss relative to NBTPT without mixing partner” value is 1149% and the “% N loss relative to NNDiTPT without mixing partner” value is recorded as 100%.

For `CCCNP(N)(N)=S` [NPTPT, N-n-propylthiophosphoric triamide], the “% N loss based on fertilized N quantity” value in the assay on urease [1] (Table 8) amounted to 0.42%; in the assay on urease [2], 2.08%; with urease [3], 1.57%; in the assay on urease [4] (Table 4) it was 1.60%. Moreover, the “% N loss relative to NBTPT without mixing partner” value with urease [1] (Table 8, NBTPT/NPTPT series) amounted to 127%; in the assay on urease [2] it was 158%; in the assay on urease [3] it was 121%; with urease [4] (Table 4, NBTPT/NPTPT series) it was 104%. Besides, the “% N loss relative to NPTPT without mixing partner” value is reported as 100% with urease [1] (Table 8, NBTPT/NPTPT series); 100% in the assay on urease [2]; 100% in the assay on urease [3]; 100% in the assay with urease [4] (Table 4, NBTPT/NPTPT series).

On to `CCCCCNP(N)(N)=S` [NPenTPT, N-pentylthiophosphoric triamide], for which the “% N loss based on fertilized N quantity” value in the assay with urease [1] (Table 6) was determined as 1.12%; in the assay on urease [4] (Table 2), 2.46%. Moreover, the “% N loss relative to NBTPT without mixing partner” value with urease [1] (Table 6, NBTPT/NPenTPT series) is 158%; in the assay with urease [4] (Table 2, NBTPT/NPenTPT series) it was 130%. For the same molecule, the “% N loss relative to NPenTPT without mixing partner” value in the assay on urease [1] (Table 6, NBTPT/NPenTPT series) is 100%; in the assay on urease [4] (Table 2, NBTPT/NPenTPT series) it was 100%.

Regarding `NP(N)(=S)NC1CCCCC1` [NcHTPT, N-cyclohexylthiophosphoric triamide], the “% N loss based on fertilized N quantity” value with urease [1] (Table 5) came to 1.11%; in the assay on urease [4] (Table 1), 2.77%. Besides, the “% N loss relative to NBTPT without mixing partner” value is on record as 160% in the assay with urease [1] (Table 5, NBTPT/NcHTPT series) and 180% in the assay with urease [4] (Table 1, NBTPT/NcHTPT series). The “% N loss relative to NcHTPT without mixing partner” value was 100% in the assay on urease [1] (Table 5, NBTPT/NcHTPT series) and 100% in the assay on urease [4] (Table 1, NBTPT/NcHTPT series).

On to `CC(C)CNP(N)(N)=S` [NiBTPT, N-isobutylthiophosphoric triamide], for which the results for the “% N loss based on fertilized N quantity” value in the assay on urease [1] (Table 7) and in the assay on urease [4] (Table 3) were 0.54% and 1.68%, respectively. For the same molecule, the “% N loss relative to NBTPT without mixing partner” value with urease [1] (Table 7, NBTPT/NiBTPT series) is given as 164%; with urease [4] (Table 3, NBTPT/NiBTPT series), 109%. For the same molecule, the “% N loss relative to NiBTPT without mixing partner” value was found to be 100% with urease [1] (Table 7, NBTPT/NiBTPT series) and 100% in the assay on urease [4] (Table 3, NBTPT/NiBTPT series).

For the origin of these results see patent publication US8075659B2, “Preparations with improved urease-inhibiting effect and urea-containing fertilizers containing the latter” (BASF SE, priority 2006, dated 2011).
